The record followed here is patent publication EP4752152A1, “STEROID COMPOUND, AND PREPARATION METHOD THEREFOR AND USE THEREOF” (Cholesgen (Shanghai) Co.Ltd., priority 2023, dated 2025).

The first test deals with SREBP pathway. Briefly: SREBP luciferase reporter gene system (SRE-luciferase assay). In kind it is cell-based, human. Conditions: Homo sapiens, Huh-7, 16 h, Huh-7/SRE-luc cells, sterol-deficient medium, 0.01-10 µM. The protocol: Huh-7/SRE-luc cells were incubated in sterol-deficient medium (5% lipoprotein deficient serum, 2 µM lovastatin, 10 µM mevalonic acid) with corresponding concentrations of compounds for 16 hours. The Huh-7/SRE-luc cells were human hepatoma cell line Huh-7 stably expressing LDLR promotor-luciferase and green fluorescent protein (GFP). These cells were obtained by transfecting Huh-7 with pLDLR-promotor-luciferase and pEGFP-N1 plasmids, followed by screening under G418 antibiotic selection pressure. The Huh-7 cells were purchased from ATCC, the pLDLR-promotor-luciferase plasmid was obtained by molecular cloning methods, and the pEGFP-N1 plasmid was purchased from Addgene.
After compound treatment, the cells were lysed with lysis buffer (E397A, Promega). After the addition of luciferase substrate (E1500, Promega), the activity of SRE-driven luciferase was measured using a BioTek Synergy HTX microplate reader (including but not limited to this type of instrument). The fluorescence intensity of green fluorescent protein (EGFP) was also measured using the above BioTek microplate reader (including but not limited to this type of instrument) and served as an internal control. The ratio of SRE-driven luciferase activity divided by the fluorescence intensity of green fluorescent protein was used as an indicator of SREBP pathway activity. The test data for each test compound were analyzed using Prism software (with the DMSO-treated group as the reference to calculate the compound inhibition rate, fitted using the Prism log(inhibitor) vs. response--Variable slope (four-parameter) model, calculation formula: Y = Bottom + (Top - Bottom)/(1 + 10^((LogIC50 - X) × HillSlope))), to obtain the IC50 parameters of the compounds.
Using the method described in 1.1, the inhibitory effect of the compounds of the present disclosure on the SREBP pathway was tested. The concentration gradient for each compound was designed as 0.01, 0.03, 0.1, 0.3, 1.0, 3.0, and 10 µM, with the vehicle DMSO as the control.
For orientation: Reporter assays use an easily measured gene product as a stand-in for the process of interest.
On to `COc1cccc(C(O)CCC[C@@H](C)[C@H]2CC[C@H]3[C@@H]4CC[C@H]5[C@@H](O)[C@@H](O)CC[C@]5(C)[C@H]4CC[C@]23C)c1` (stereo partly drawn) [Compound 5, 24-[hydroxy(3-methoxyphenyl)methyl]-5α-cholane-3β,4β-diol], for which the IC50 was found to be 0.13 µM.

Consider `COc1cc(Cl)ccc1[C@@H](O)CCC[C@@H](C)[C@H]1CC[C@H]2C3=C(F)C[C@H]4[C@@H](O)[C@@H](O)CC[C@]4(C)[C@H]3CC[C@]12C` [Compound 111, (1R,3aR,5aR,6R,7S,9aR,9bR,11aR)-1-[(2R,6S)-6-(4-chloro-2-methoxyphenyl)-6-hydroxyhexan-2-yl]-4-fluoro-9a,11a-dimethyl-2,3,3a,5,5a,6,7,8,9,9a,9b,10,11,11a-tetradecahydro-1H-cyclopenta[1,2-a]phenanthrene-6,7-diol], for which the IC50 is 1.48 µM.

In the case of `COc1cc(F)ccc1/C(CCC[C@@H](C)[C@H]1CC[C@H]2[C@H]3[C@H](CC[C@]12C)[C@@]1(C)CC[C@H](O)[C@H](O)[C@@H]1CC3(F)F)=N/O` [Compound 157, [(1E,5R)-5-[(1R,3aS,3bS,5aR,6R,7S,9aR,9bS,11aR)-4,4-difluoro-6,7-dihydroxy-9a,11a-dimethylhexadecahydro-1H-cyclopenta[1,2-a]phenanthren-1-yl]-1-(4-fluoro-2-methoxyphenyl)hexylidene]hydroxylamine], the IC50 was 0.053 µM.

Staying with this test, now noted: Huh-7/SRE-luc cells, sterol-deficient medium, 16 hours, 0.01-10 µM.
In the case of `COc1cc(C(O)CCC[C@@H](C)[C@H]2CC[C@H]3[C@H]4[C@H](CC[C@]23C)[C@@]2(C)CC[C@H](O)[C@H](O)[C@@H]2CC4(F)F)cc(F)n1` (single isomer, unassigned) [Compound 248, (1R,3aS,3bS,5aR,6R,7S,9aR,9bS,11aR)-4,4-difluoro-1-[(2R,6R)-6-(6-fluoro-2-methoxypyridin-4-yl)-6-hydroxyhexan-2-yl]-9a,11a-dimethylhexadecahydro-1H-cyclopenta[1,2-a]phenanthrene-6,7-diol or (1R,3aS,3bS,5aR,6R,7S,9aR,9bS,11aR)-4,4-difluoro-1-[(2R,6S)-6-(6-fluoro-2-methoxypyridin-4-yl)-6-hydroxyhexan-2-yl]-9a,11a-dimethylhexadecahydro-1H-cyclopenta[1,2-a]phenanthrene-6,7-diol], the half-maximal inhibitory concentration (IC50) is 0.035 µM.

`COc1nc(C(O)CCC[C@@H](C)[C@H]2CC[C@H]3[C@H]4[C@H](CC[C@]23C)[C@@]2(C)CC[C@H](O)[C@H](O)[C@@H]2CC4(F)F)cs1` (single isomer, unassigned) [Compound 221, (1R,3aS,3bS,5aR,6R,7S,9aR,9bS,11aR)-4,4-difluoro-1-[(2R,6S)-6-hydroxy-6-(2-methoxy-1,3-thiazol-4-yl)hexan-2-yl]-9a,11a-dimethylhexadecahydro-1H-cyclopenta[1,2-a]phenanthrene-6,7-diol or (1R,3aS,3bS,5aR,6R,7S,9aR,9bS,11aR)-4,4-difluoro-1-[(2R,6R)-6-hydroxy-6-(2-methoxy-1,3-thiazol-4-yl)hexan-2-yl]-9a,11a-dimethylhexadecahydro-1H-cyclopenta[1,2-a]phenanthrene-6,7-diol]: the half-maximal inhibitory concentration (IC50) worked out at 0.183 µM.

Turning to `C[C@H](CCCC(O)c1cccc2cnn(C)c12)[C@H]1CC[C@H]2[C@H]3[C@H](CC[C@]12C)[C@@]1(C)CC[C@H](O)[C@H](O)[C@@H]1CC3(F)F` (single isomer, unassigned) [Compound 243, (1R,3aS,3bS,5aR,6R,7S,9aR,9bS,11aR)-4,4-difluoro-1-[(2R,6S)-6-hydroxy-6-(1-methylindazol-7-yl)hexan-2-yl]-9a,11a-dimethylhexadecahydro-1H-cyclopenta[1,2-a]phenanthrene-6,7-diol or (1R,3aS,3bS,5aR,6R,7S,9aR,9bS,11aR)-4,4-difluoro-1-[(2R,6R)-6-hydroxy-6-(1-methylindazol-7-yl)hexan-2-yl]-9a,11a-dimethylhexadecahydro-1H-cyclopenta[1,2-a]phenanthrene-6,7-diol], the IC50 turned out to be 0.134 µM.

What is called IC50 is the concentration that inhibits the measured activity by half.
